Read-outs that look alike come from different tables or passages of the source.
Tests used:
[1] = test system: HIV-1; assay: microbe, parasite or virus in culture
Protocol: IC50 values were determined, and a persistence ratio was calculated for each compound.
Assay media in each well were then evacuated and the cells resuspended using the gentle setting on the BlueWasher (BlueCatBio; Lebanon, NH, USA). Centrifugation and wash steps were repeated to ensure removal of extracellular compound.
MT4-GFP cells were infected with WT R8 virus, and PBMCs were infected with pNLG1-P2A-GFP. […] IC50 values were determined by nonlinear 4-parameter curve fitting of the data. A persistence ratio was calculated for each compound by dividing the IC50 from variable B (IC50B) by the IC50 from variable A (IC50A).

[2] = target: T1, human mitochondrial DNA polymerase γ (Homo sapiens, UniProt P54098); assay: Human mitochondrial DNA polymerase γ inhibition assay; format: biochemical; conditions: highest concentration tested 200 µM
T1 sequence (P54098 1-1239): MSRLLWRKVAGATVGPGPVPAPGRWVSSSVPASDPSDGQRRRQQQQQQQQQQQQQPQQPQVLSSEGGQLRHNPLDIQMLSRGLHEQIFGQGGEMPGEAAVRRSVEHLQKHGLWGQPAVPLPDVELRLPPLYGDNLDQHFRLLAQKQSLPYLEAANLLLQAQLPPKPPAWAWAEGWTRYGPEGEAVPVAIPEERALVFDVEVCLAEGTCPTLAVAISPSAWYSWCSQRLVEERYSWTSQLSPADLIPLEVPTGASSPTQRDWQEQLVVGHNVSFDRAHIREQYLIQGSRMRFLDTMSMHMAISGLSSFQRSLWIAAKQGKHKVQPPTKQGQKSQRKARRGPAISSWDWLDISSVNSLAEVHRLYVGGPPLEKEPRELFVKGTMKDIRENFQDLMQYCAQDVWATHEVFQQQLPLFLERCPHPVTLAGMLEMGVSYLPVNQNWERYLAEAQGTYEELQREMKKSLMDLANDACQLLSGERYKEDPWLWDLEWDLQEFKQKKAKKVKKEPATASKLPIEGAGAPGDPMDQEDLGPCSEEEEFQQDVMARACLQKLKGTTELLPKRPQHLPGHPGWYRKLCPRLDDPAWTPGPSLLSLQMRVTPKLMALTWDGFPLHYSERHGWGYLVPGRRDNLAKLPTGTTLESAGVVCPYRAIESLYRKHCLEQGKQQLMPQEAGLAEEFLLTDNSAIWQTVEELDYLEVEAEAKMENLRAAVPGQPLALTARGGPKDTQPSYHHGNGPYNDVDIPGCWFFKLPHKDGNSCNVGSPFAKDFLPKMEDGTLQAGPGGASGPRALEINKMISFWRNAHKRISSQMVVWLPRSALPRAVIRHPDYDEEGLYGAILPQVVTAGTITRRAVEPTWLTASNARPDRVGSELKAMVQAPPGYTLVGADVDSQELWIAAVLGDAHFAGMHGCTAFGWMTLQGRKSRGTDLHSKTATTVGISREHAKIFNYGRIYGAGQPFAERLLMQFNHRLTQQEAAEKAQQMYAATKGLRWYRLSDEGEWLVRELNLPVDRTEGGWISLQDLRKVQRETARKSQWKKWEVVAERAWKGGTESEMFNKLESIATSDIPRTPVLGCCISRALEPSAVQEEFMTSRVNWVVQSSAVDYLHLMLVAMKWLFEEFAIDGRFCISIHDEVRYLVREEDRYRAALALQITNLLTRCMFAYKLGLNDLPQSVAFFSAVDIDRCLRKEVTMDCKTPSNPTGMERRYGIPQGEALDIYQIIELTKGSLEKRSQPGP
Protocol: The activities of human DNA polymerases α, β, and γ were measured in radiolabeled nucleotide incorporation assays. TP was prepared as a 10-point titration with 3-fold serial dilution in water. Reaction buffers for the DNA polymerase α and β assays both contained 20 mM Tris pH 7.5, 10 mM MgCl2, 50 μM EDTA, 200 μg/mL bovine serum albumin (BSA), 2 mM dithiothreitol (DTT), 1.6 μM each of dNTP (dATP, dCTP, dGTP, and dTTP), 20 μCi/mL [α33P]dATP, 0.1 mg/mL gapped activated fish sperm DNA template, test compound, and 0.005 U/μL DNA polymerase α or 0.0025 U/μL DNA polymerase β. The reaction buffer for DNA polymerase γ contained 20 mM Tris pH 8, 10 mM MgCl2, 50 mM KCl, 100 μg/mL BSA, 2 mM β-mercaptoethanol, 10 μM of each dNTP (dATP, dCTP, dGTP, and dTTP), 20 μCi/mL [α33P]dATP, 0.04 mg/mL gapped activated fish sperm DNA template, test compound, and 0.0003 μg/μL DNA polymerase γ. The 50-μL reactions were incubated at room temperature for 30 min (for β and γ) or 90 min (for α) before terminating with the addition of 50 μL 500 mM EDTA. The reaction mixtures were transferred to a Millipore DE81 filter plate (EMD Millipore; Hayward, CA), washed with 0.5 M sodium phosphate pH 7.0, and dried. After addition of 40 μL scintillant to each well, the incorporation of labeled dATP was determined with a microplate counter (TopCount NXT HTS; PerkinElmer, Shelton, CA, USA).

| Structure (SMILES) | IC50 ([1]; Human immunodeficiency virus 1, 48 h, read-out: Persistence assay IC50B, MT4-GFP cells) [µM] | IC50 ([1]; Human immunodeficiency virus 1, read-out: Persistence assay IC50A, MT4-GFP cells) [µM] | Inhibitory activity [2] |
| --- | --- | --- | --- |
| C#C[C@]1(CO)O[C@@H](n2ccc3c(N)nc(Cl)nc32)C[C@@H]1O [Compound 12, (2R,3S,5R)-5-(4-amino-2-chloro-7H-pyrrolo[2,3-d]pyrimidin-7-yl)-2-ethynyl-2-(hydroxymethyl)tetrahydrofuran-3-ol] | 0.223 ± 0.104 | 0.0072 ± 0.0023 |  |
| C#C[C@]1(COP(=O)(O)OP(=O)(O)OP(=O)(O)O)O[C@@H](n2ccc3c(N)nc(Cl)nc32)C[C@@H]1O [MK-8527-TP] |  |  | no inhibitory activity |
